Patent publication US11980188B2, “Spiro cyclohexanedione derivates as herbicides” (SYNGENTA PARTICIPATIONS AG, priority 2018, dated 2024)

Legend:
Assay in all cases: Glasshouse herbicide test, pre- and post-emergence, percentage damage
Type in all cases: in vivo
[1] = tested on: Echinochloa crus-galli (ECHCG); settings: 250 g/h, evaluated after 13 days, percentage damage on five point scale; for ECHCG POST: post-emergence; for ECHCG PRE: pre-emergence
Description: (§1) Seeds of a variety of test species are sown in standard soil in pots (Lolium perenne (LOLPE), Setaria faberi (SETFA), Alopecurus myosuroides (ALOMY), Echinochloa crus-galli (ECHCG), Avena fatua (AVEFA)). After cultivation for one day (pre-emergence) or after 8 days cultivation (post-emergence) under controlled conditions in a glasshouse (at 24/16° C., day/night; 14 hours light; 65% humidity), the plants are sprayed with an aqueous spray solution derived from the formulation of the technical active ingredient in acetone/water (50:50) solution containing 0.5% Tween 20 (polyoxyethelyene sorbitan monolaurate, CAS RN 9005-64-5). Compounds are applied at […]. The test plants are then grown in a glasshouse under controlled conditions in a glasshouse (at 24/16° C., day/night; 14 hours light; 65% humidity) and watered twice daily. After 13 days for pre and post-emergence, the test is evaluated for the percentage damage caused to the plant. The biological activities are shown in the following table on a five point scale (5=80-100%; 4=60-79%; 3=40-59%; 2=20-39%; 1=0-19%).

[2] = tested on: Alopecurus myosuroides (ALOMY); settings: 250 g/h, evaluated after 13 days, percentage damage on five point scale; for ALOMY PRE: pre-emergence; for ALOMY POST: post-emergence
Description: as §1

Setaria faberi (SETFA) = settings: 250 g/h, evaluated after 13 days, percentage damage on five point scale; for SETFA POST: post-emergence; for SETFA PRE: pre-emergence
Description: as §1

Lolium perenne (LOLPE) = settings: 250 g/h, evaluated after 13 days, percentage damage on five point scale; for LOLPE POST: post-emergence; for LOLPE PRE: pre-emergence
Description: as §1

Avena fatua (AVEFA) = settings: 250 g/h, evaluated after 13 days, percentage damage on five point scale; for AVEFA POST: post-emergence; for AVEFA PRE: pre-emergence
Description: as §1

| SMILES | ECHCG POST [1] | ECHCG PRE [1] | ALOMY PRE [2] | SETFA POST (Setaria faberi (SETFA)) | SETFA PRE (Setaria faberi (SETFA)) | LOLPE POST (Lolium perenne (LOLPE)) | LOLPE PRE (Lolium perenne (LOLPE)) | AVEFA POST (Avena fatua (AVEFA)) | AVEFA PRE (Avena fatua (AVEFA)) | ALOMY POST [2] |
| --- | --- | --- | --- | --- | --- | --- | --- | --- | --- | --- |
| Cc1cc(-c2ccc(F)cc2)cc(C)c1C1C(=O)CC2(CCN(C(=O)NC(=O)C(C)(C)C)CC2)CC1=O [Compound A58] | 5 (5=80-100%) | 5 (5=80-100%) | 5 (5=80-100%) | 5 (5=80-100%) | 5 (5=80-100%) | 5 (5=80-100%) | 5 (5=80-100%) | 5 (5=80-100%) | 4 (4=60-79%) |  |
| COc1cc(-c2ccc(F)cc2)cc(C)c1C1C(=O)CC2(CCN(C(=O)C(C)O)CC2)CC1=O (centres unmarked) [Compound A75] | 5 (5=80-100%) | 5 (5=80-100%) | 5 (5=80-100%) | 5 (5=80-100%) | 5 (5=80-100%) | 5 (5=80-100%) | 5 (5=80-100%) | 5 (5=80-100%) | 5 (5=80-100%) | 5 (5=80-100%) |
| COc1cc(-c2ccc(C#N)cn2)cc(OC)c1C1C(=O)CC2(CCN(C(C)=O)CC2)CC1=O [Compound A16] |  | 5 (5=80-100%) | 1 (1=0-19%) | 5 (5=80-100%) | 4 (4=60-79%) | 4 (4=60-79%) | 3 (3=40-59%) | 5 (5=80-100%) | 4 (4=60-79%) | 5 (5=80-100%) |
| COc1cc(-c2ccc(F)cc2)cc(C)c1C1C(=O)CC2(CCN(OC)CC2)CC1=O [Compound A9] | 5 (5=80-100%) | 5 (5=80-100%) | 5 (5=80-100%) | 5 (5=80-100%) | 5 (5=80-100%) | 5 (5=80-100%) | 5 (5=80-100%) | 5 (5=80-100%) | 5 (5=80-100%) | 5 (5=80-100%) |
| Cc1cc(-c2ccc(C#N)cn2)cc(C)c1C1C(=O)CC2(CCN(C(=O)NC(=O)c3ccccn3)CC2)CC1=O [Compound A31] | 5 (5=80-100%) | 3 (3=40-59%) | 1 (1=0-19%) | 5 (5=80-100%) | 1 (1=0-19%) | 5 (5=80-100%) | 1 (1=0-19%) | 5 (5=80-100%) |  | 5 (5=80-100%) |
| Cc1cc(-c2ccc(C#N)cn2)cc(C)c1C1C(=O)CC2(CCN(C(=O)NC(C)(C)C)CC2)CC1=O [Compound A26] |  | 5 (5=80-100%) | 5 (5=80-100%) | 5 (5=80-100%) | 5 (5=80-100%) | 5 (5=80-100%) | 5 (5=80-100%) | 2 (2=20-39%) | 4 (4=60-79%) | 5 (5=80-100%) |
| Cc1cc(-c2ncc(F)cn2)cc(C)c1C1C(=O)CC2(CCN(C(=O)C(F)F)CC2)CC1=O [Compound A39] | 5 (5=80-100%) | 5 (5=80-100%) | 5 (5=80-100%) | 5 (5=80-100%) | 5 (5=80-100%) | 5 (5=80-100%) | 5 (5=80-100%) | 5 (5=80-100%) | 5 (5=80-100%) | 5 (5=80-100%) |
| Cc1cc(-c2ncc(F)cn2)cc(C)c1C1C(=O)CC2(CCN(C(=O)NC(=O)c3ccccn3)CC2)CC1=O [Compound A41] | 5 (5=80-100%) | 4 (4=60-79%) | 3 (3=40-59%) | 5 (5=80-100%) | 5 (5=80-100%) | 5 (5=80-100%) | 3 (3=40-59%) | 5 (5=80-100%) | 3 (3=40-59%) | 5 (5=80-100%) |
| Cc1cc(-c2ncc(F)cn2)cc(C)c1C1C(=O)CC2(CCN(C(=O)C(C)(C)C)CC2)CC1=O [Compound A40] | 5 (5=80-100%) | 5 (5=80-100%) | 5 (5=80-100%) | 5 (5=80-100%) | 5 (5=80-100%) | 5 (5=80-100%) | 5 (5=80-100%) | 5 (5=80-100%) | 5 (5=80-100%) | 5 (5=80-100%) |
